From patent US12473536B2, “Cultured meat product with genetically modified cells” (Trustees of Tufts College, priority 2019, dated 2025)
Several values for one entry are separate records, joined by “and”; a condition that tells them apart may be missing. Identical values can stand only once.

Key:
[1] = tested on: a range of cell types; conditions: cited from earlier work
[2] = tested on: C2C12 mouse skeletal myoblasts; assay: Carotenoid quantification by quantitative HPLC in engineered C2C12s; assay type: cell-based; conditions: pCrtB/I/Y C2C12s
[3] = tested on: BSCs; assay: Eight-day cell growth by dsDNA quantitation, BSCs; assay type: cell-based, bovine; conditions: 5 μg/mL, pCrtB/I/Y BSCs, 8-day growth
Procedure: (§1) Growth and development of engineered cells—Growth of engineered BSCs and C2C12s was analyzed using a dsDNA quantitation kit (ThermoFisher #F2962) on days 1, 2, 4, 6, and 8 of culture. Cells were plated in 96-well plates for each time-point at a density of 1000 cells/well. At each time-point, media was removed from wells and plates were frozen at −80° C. After all time-points were frozen, plates were thawed to room temperature, and 100 uL of UltraPure water (ThermoFisher #10977023) was added to wells. Plates were incubated at 37° C. for one hour, re-frozen to −80° C., and re-thawed to room temperature. Wells were stained with 100 uL of Hoechst 33258 working solution. Fluorescence was measured with a Synergy H1 microplate reader (BioTek Instruments, Winooski, VT, USA) using excitation and emission filters centered at 360 and 460 nm, respectively. In parallel, a 96-well plate was seeded with a range of known cell densities, incubated for 12 hours, and measured using the same protocol to obtain a standard curve and convert fluorescence values to cell number. […]
Carotenoid optimization—Two methods were explored for optimizing carotenoid production in pCrtB/I/Y cells. […] Briefly, cells were cultured, harvested, and GFP was analyzed using a BD FACSCalibur (BD Sciences) or Attune N×T (ThermoFisher) flow cytometer. […] Data were analyzed with the FlowJo software (v10). […]

[4] = tested on: primary bovine satellite cells (BSCs); assay: Carotenoid quantification by quantitative HPLC in engineered BSCs; assay type: cell-based; conditions: for Effect of ketoconazole and puromycin conditioning on β-carotene: pCrtB/I/Y BSCs
[5] = tested on: C2C12s; assay: Eight-day cell growth by dsDNA quantitation, C2C12s; assay type: cell-based, mouse; conditions: for Growth of engineered cells: over eight days, vs cells engineered with pGFP or pCrtB
Procedure: as §1
(§2) Carotenoid optimization—Two methods were explored for optimizing carotenoid production in pCrtB/I/Y cells. […] To determine an appropriate puromycin concentration for increasing enzyme expression, engineered cells were cultured in media containing 2.5 μg/mL puromycin (1× puro), 5 μg/mL puromycin (2× puro) or 10 μg/mL puromycin (4× puro), and relative GFP expression was determined via flow cytometry as a proximate measure of enzyme expression. Briefly, cells were cultured, harvested, and GFP was analyzed using a BD FACSCalibur (BD Sciences) or Attune N×T (ThermoFisher) flow cytometer. Appropriate gating was performed using pGFP and unmodified cells as positive and negative controls, and mean fluorescent intensity was determined. Data were analyzed with the FlowJo software (v10). […]

[6] = tested on: bovine satellite cells (BSCs); assay: Adipogenic transdifferentiation of BSCs with free fatty acids (Oil Red O staining); assay type: cell-based; conditions: 100 uM to 150 uM
From the text: This adipogenic transdifferentiation protocol will be further optimized through a fractional factorial experimental design, testing various concentrations oleic, myristoleic, linoleic, erucic, and elaidic acid. Lipid accumulation will be verified qualitatively with Oil Red O staining and quantified with the AdipoRed plate reader assay (Lonza). Transdifferentiation of satellite cells into mature adipocytes will enable muscle and fat components of cultured meat to be generated from a single cell source throughout this proposal, thus increasing project efficiency and impact.

[7] = tested on: pCrtB/I/Y C2C12s; assay: GFP expression by flow cytometry under puromycin selection, C2C12s; assay type: cell-based, mouse; conditions: 4× concentration (10 μg/mL)
From the text: as §2, with “cells. The first focused on increasing gene expression by increasing puromycin selective pressure. The second focused on increasing levels of the carotenoid pathway precursor farnesyl pyrophosphate (FPP) by inhibiting downstream reactions in one of FPP's alternative metabolic pathways—cholesterol synthesis—using the small molecule ketoconazole (Sun et al., 2007). By exploring these two approaches, the possibility for a single approach to fail to address a rate-limiting step in carotenoid production was reduced.” for “cells.”

[8] = tested on: pCrtB/I/Y BSCs; assay: GFP expression by flow cytometry under puromycin selection, BSCs; assay type: cell-based, bovine
From the text: as §2, with “cells. The first focused on increasing gene expression by increasing puromycin selective pressure. The second focused on increasing levels of the carotenoid pathway precursor farnesyl pyrophosphate (FPP) by inhibiting downstream reactions in one of FPP's alternative metabolic pathways—cholesterol synthesis—using the small molecule ketoconazole (Sun et al., 2007). By exploring these two approaches, the possibility for a single approach to fail to address a rate-limiting step in carotenoid production was reduced.” for “cells.”

[9] = tested on: BSCs; assay: Four-day growth of BSCs in serum-free B8 media and FGF-2 dilutions; assay type: cell-based, bovine; conditions: four days, within B8 media
Procedure: Briefly, B8 media will be comprised of DMEM:F12 (1:1) supplemented with L-ascorbic acid 2-phosphate (200 ug/mL), insulin (20 ug/mL), transferrin (20 ug/mL), sodium selenite (20 ng/mL), FGF-2 (10 ng/mL), neuregulin 1 (NRG-1; 0.1 ng/mL), TGFβ-3 ([…]), and insulin-like growth factor 1 (IGF-1; 10 ng/mL). Formulations absent one or more growth factors will simultaneously generated, as will formulations lacking all growth factors but containing previously reported serum-replacements made from rapeseed peptide fractions, maitake mushroom extract, and silk-derived sericin proteins.

[10] = tested on: engineered BSCs; assay: Thiobarbituric acid reactive substances (TBARS) lipid oxidation assay, raw or heated cells; assay type: cell-based, bovine
Procedure: Lipid oxidation—To analyze the antioxidant functionality of carotenoids in cells, a thiobarbituric acid reactive substances (TBARS) assay was performed. This assay measures malondialdehyde (MDA), a byproduct of unsaturated fatty acid oxidation, and so serves as a measure of lipid oxidation in cells. As lipid oxidation is often catalyzed by the processes that generate oxidative pressure, such as cooking of meat, the TBARS assay was performed on both “raw” cells, and cells that had been heated to mimic cooking. Briefly, engineered BSCs were cultured as previously described, harvested, and counted. 1.5 million cells were aliquoted to tubes for heated or unheated analysis, washed 1× in PBS, pelleted, and the supernatant PBS was removed. Collected cell pellets were stored overnight at 4° C. The next day, samples designated for heating were incubated for 10 minutes in a 100° C. heat block, cooled to room temperature, and placed on ice. All cells (heated and unheated) were suspended in 500 μL of PBS, incubated for 2 hours on ice, and sonicated on ice using a probe sonicator (Branson, St. Louis, MO, USA) at 15% intensity for 5×15 second pulses, with 20 second intervals between pulses. Next, the TBARS assay (Cayman Chemical #700870, Ann Arbor, MI, USA) was performed with 100 μL of sonicated cell lysates, following the manufacturers protocol and determining MDA by measuring absorbance at 535 nm compared to a standard curve of known MDA concentrations. The remainders of the cell lysates were frozen at −80° C. until protein quantification was performed via Bradford assay (ThermoFisher #23200) following the manufacturers protocol. Briefly, 5 μL of cell lysates were incubated for 10 minutes with 250 uL of Coomassie reagent, and the absorbance was measured at 595 nm and compared to a BSA standard curve. TBARS measurements were normalized with protein content for each sample in order to obtain corrected cellular MDA (mg/g protein).

[11] = tested on: pCrtB/I/Y BSCs; assay: Pax7 and MHC immunostaining of engineered BSCs before and after differentiation; assay type: cell-based, bovine
Procedure: Immunofluorescence and cell characterization—To confirm the identity of isolated primary BSCs, cells were stained for Pax7 and Myosin Heavy Chain (MHC) before and after differentiation, respectively. These markers confirm the primary and terminal states of satellite cell myogenesis and therefore act to verify the nature and myogenicity of isolated cells. Proliferative cells and cells after one week of differentiation were fixed with 4% paraformaldehyde (ThermoFisher #AAJ61899AK) for 30 minutes, washed in PBS, permeabilized for 15 minutes using 0.5% Triton X (Sigma #T8787) in PBS, blocked for 45 minutes using 5% goat serum (ThermoFisher #16210064) in PBS with 0.05% sodium azide (Sigma #S2002), and washed with PBS containing 0.1% Tween-20 (Sigma #P1379). […]
Growth and development of engineered cells—Growth of engineered BSCs and C2C12s was analyzed using a dsDNA quantitation kit (ThermoFisher #F2962) on days 1, 2, 4, 6, and 8 of culture. […] Fluorescence was measured with a Synergy H1 microplate reader (BioTek Instruments, Winooski, VT, USA) using excitation and emission filters centered at 360 and 460 nm, respectively. In parallel, a 96-well plate was seeded with a range of known cell densities, incubated for 12 hours, and measured using the same protocol to obtain a standard curve and convert fluorescence values to cell number. […]

[12] = tested on: pepsin; conditions: cited from earlier work
[13] = increasing levels of selection antibiotic
[14] = heated samples (10 minutes, 100° C.)

## C=C(C)[C@@H]1CCC(C)=C[C@H]1c1c(O)cc(CCCCC)cc1O [cannabidiol]
[1]
  Treatment range explored without mention of excess cell death: 1-50 uM and 0.313-15.65 ug/mL

## CC(=O)N1CCN(c2ccc(OCC3COC(Cn4ccnc4)(c4ccc(Cl)cc4Cl)O3)cc2)CC1 (stereo not drawn) [ketoconazole]
[2]
  Effect of ketoconazole and puromycin together on β-carotene: do not significantly increase β-carotene
[3]
  Effect on growth: not significantly effect growth
[4]
  Effect of ketoconazole and puromycin conditioning on β-carotene: additive increase in β-carotene
[5]; 5 μg/mL, pCrtB/I/Y C2C12s, 8-day growth
  Effect on growth: not significantly effect growth

## CCCCC/C=C\C/C=C\CCCCCCCC(=O)O [linoleic acid]
[6]
  Lipid accumulation (Oil Red O): Sparse lipid accumulation

## COc1ccc(C[C@H](N)C(=O)N[C@H]2[C@@H](O)[C@H](n3cnc4c(N(C)C)ncnc43)O[C@@H]2CO)cc1 [puromycin]
[2]
  Effect of ketoconazole and puromycin together on β-carotene: do not significantly increase β-carotene
[4]; [13]
  Increase in carotenoid levels: ~3 fold
[4]
  Effect of ketoconazole and puromycin conditioning on β-carotene: additive increase in β-carotene
[7]
  Effect on GFP expression: significant increase in GFP expression
[8]; 4× concentration (10 μg/mL), BSCs
  Effect on GFP expression: significant increase in GFP expression
[8]; [13]
  Increase in gene expression (as shown by GFP expression): two-fold

## FGF-2: fibroblast growth-factor 2
[9]
  FGF-2 concentration showing significantly improved growth vs FGF-2-free B8 media: greater than or equal to 1.25 ng/mL

## pSBbi-(CMV-CrtB-T2A-)-pur [pCrtB]
[10]; [14]
  Cellular MDA (lipid oxidation): 3.6 mg/g protein
[10]; unheated samples
  Cellular MDA (lipid oxidation): 1.7 mg/g protein

## pSBbi-(CMV-CrtB-T2A-CrtI-P2A-GFP)-pur [pCrtB/I]
[10]; [14]
  Cellular MDA (lipid oxidation): 1.7 mg/g protein
[10]; unheated samples
  Cellular MDA (lipid oxidation): 1.0 mg/g protein
[5]
  Growth of engineered cells: higher growth over eight days

## pSBbi-(CMV-CrtY-T2A-CrtB-T2A-CrtI-P2A-GFP)-pur [pCrtB/I/Y]
[10]; [14]
  Cellular MDA (lipid oxidation): 2.3 mg/g protein
[10]; unheated samples
  Cellular MDA (lipid oxidation): 1.1 mg/g protein
[11]
  Myogenic potential (Pax7 and MHC staining): maintenance of Pax7 expression and MHC-positive myotube formation
[5]
  Growth of engineered cells: higher growth over eight days

B1: V565: anti-TNFα nanobody V565 (SEQ ID NO:7) (protein)
VHH: DVQLVESGGGLVQPGGSLKLSCAASGFDFSSHWMYWVRQAPGKELEWLSEINTNGLITHYGDSVKGRFTVSRNNAANKMYLELTRLEPEDTALYYCARNQHGLNKGQGTQVTVSS
[12]
  Sensitivity to pepsin: sensitive to pepsin
  Stability in the gastric environment: largely stable in the gastric environment
